# Measurements published in the supplement of paper PMC10307832.
# How the values were obtained:
# Assay in all cases: relative viability (nuclei count vs DMSO), 5 days (fraction); higher = more cells survive
# Serdemetan + Pemetrexed = compound: c1ccc2c(CCNc3ccc(Nc4ccncc4)cc3)c[nH]c2c1 [Serdemetan] + Nc1nc2[nH]cc(CCc3ccc(C(=O)N[C@@H](CCC(=O)O)C(=O)O)cc3)c2c(=O)[nH]1 [Pemetrexed] (partner 0.2 µM)
# Outline: (§1)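 Medians of duplicate plates are given as relative viability. That measure is the nuclei count in treated wells divided by the count in vehicle wells. Counts were taken on 4× images of lung cancer cell lines in 1536-well plates, 5 days after pin-tool dosing the day after seeding with one drug alone or a fixed anchor-drug dose plus five library-drug doses (not always all listed) in √10 steps.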
# Selisistat + Tozasertib = compound: C1CC(C2=C(C1)C3=C(N2)C=CC(=C3)Cl)C(=O)N [Selisistat] + Cc1cc(Nc2cc(N3CCN(C)CC3)nc(Sc3ccc(NC(=O)C4CC4)cc3)n2)n[nH]1 [Tozasertib] (partner 0.1 µM)
# Outline: as §1
# Serdemetan + Crizotinib = compound: c1ccc2c(CCNc3ccc(Nc4ccncc4)cc3)c[nH]c2c1 [Serdemetan] + C[C@@H](Oc1cc(-c2cnn(C3CCNCC3)c2)cnc1N)c1c(Cl)ccc(F)c1Cl [Crizotinib] (partner 1 µM)
# Outline: as §1
# Serdemetan + Navitoclax = compound: c1ccc2c(CCNc3ccc(Nc4ccncc4)cc3)c[nH]c2c1 [Serdemetan] + CC1(C)CCC(c2ccc(Cl)cc2)=C(CN2CCN(c3ccc(C(=O)NS(=O)(=O)c4ccc(N[C@H](CCN5CCOCC5)CSc5ccccc5)c(S(=O)(=O)C(F)(F)F)c4)cc3)CC2)C1 [Navitoclax] (partner 0.5 µM)
# Outline: as §1
Cell Line,relative viability (Serdemetan + Pemetrexed; first compound 0.04 µM),relative viability (Serdemetan + Pemetrexed; first compound 0.1265 µM),relative viability (Serdemetan + Pemetrexed; first compound 0.4 µM),relative viability (Serdemetan + Pemetrexed; first compound 1.265 µM),relative viability (Serdemetan + Pemetrexed; first compound 4 µM),relative viability (Selisistat + Tozasertib; first compound 0.4 µM),relative viability (Selisistat + Tozasertib; first compound 1.265 µM),relative viability (Selisistat + Tozasertib; first compound 4 µM),relative viability (Selisistat + Tozasertib; first compound 12.65 µM),relative viability (Selisistat + Tozasertib; first compound 40 µM),relative viability (Serdemetan + Crizotinib; first compound 0.04 µM),relative viability (Serdemetan + Crizotinib; first compound 0.1265 µM),relative viability (Serdemetan + Crizotinib; first compound 0.4 µM),relative viability (Serdemetan + Crizotinib; first compound 1.265 µM),relative viability (Serdemetan + Crizotinib; first compound 4 µM),relative viability (Serdemetan + Navitoclax; first compound 0.04 µM),relative viability (Serdemetan + Navitoclax; first compound 0.1265 µM),relative viability (Serdemetan + Navitoclax; first compound 0.4 µM),relative viability (Serdemetan + Navitoclax; first compound 1.265 µM),relative viability (Serdemetan + Navitoclax; first compound 4 µM)
COR-L23,0.206,0.208,0.213,0.192,0.186,0.243,0.241,0.218,0.171,0.183,0.679,0.578,0.771,0.589,0.564,1.03,1,1.07,0.939,0.81
ABC-1,–,–,–,–,–,0.184,0.179,0.17,0.176,0.149,0.926,1,0.817,0.69,0.475,–,–,–,–,–
SW 900,0.461,0.51,0.485,0.324,0.41,0.677,0.563,0.589,0.567,0.559,–,–,–,–,–,–,–,–,–,–
NCI-H838,0.232,0.263,0.249,0.209,0.235,0.238,0.278,0.245,0.26,0.249,0.781,0.886,0.827,0.794,1.01,1.11,1.14,1.08,1.12,1.32
NCI-H1648,–,0.714,0.624,0.554,0.476,0.511,0.513,0.609,0.395,0.64,–,–,–,–,–,–,–,–,–,–
A549,–,–,–,–,–,–,–,–,–,–,0.807,0.757,0.764,0.578,0.306,1.2,1.15,1.19,0.598,0.208
A-427,0.958,0.927,1.04,0.698,0.854,0.207,0.194,0.182,0.226,0.183,0.919,0.789,0.662,0.287,0.404,0.967,0.971,0.882,0.724,0.615
NCI-H1792,0.74,0.88,0.761,0.38,0.404,–,–,–,–,–,0.947,0.926,0.867,0.939,0.603,0.655,0.587,0.551,0.355,0.476
LCLC-97TM1,0.147,0.196,0.188,0.153,0.197,0.207,0.216,–,0.231,0.212,0.361,0.314,0.351,0.233,0.189,0.472,0.32,0.278,0.364,0.377
NCI-H1703,–,–,–,–,–,–,–,–,–,–,0.665,0.872,0.815,0.73,0.217,1.05,1.24,1.17,0.958,0.951
LCLC-103H,0.447,0.49,0.481,0.386,0.454,0.435,0.515,0.494,0.47,0.565,0.977,1.12,0.979,0.94,0.995,–,–,–,–,–
PC-3 [JPC-3],1.12,1.07,0.991,0.829,1.05,0.917,0.853,0.82,0.857,0.915,0.947,0.94,–,1.02,1.03,0.747,0.713,–,0.76,0.762
Calu-6,–,–,–,–,–,–,–,–,–,–,0.832,0.718,0.712,0.566,0.527,0.973,0.869,0.682,0.687,0.493
NCI-H358,0.173,0.155,0.18,0.148,0.163,0.0984,0.1,0.102,0.092,0.0962,0.599,0.566,0.618,0.593,0.292,–,–,–,–,–
NCI-H2342,0.789,0.752,0.835,0.516,0.641,0.504,0.502,0.504,0.502,0.57,–,–,–,–,–,–,–,–,–,–
EBC-1,–,–,–,–,–,–,–,–,–,–,0.19,0.214,0.188,0.19,0.181,0.553,0.47,0.41,0.424,0.341
NCI-H1299,–,–,–,–,–,–,–,–,–,–,0.898,0.947,0.905,0.866,0.716,1.02,1.03,1.02,0.942,0.835
NCI-H522,0.971,0.857,1.04,0.933,0.98,0.569,0.593,0.509,0.608,0.52,–,–,–,–,–,–,–,–,–,–
IA-LM,–,–,–,–,–,–,–,–,–,–,0.898,0.767,0.813,0.465,0.357,0.822,0.648,0.692,0.341,0.239
NCI-H727,–,–,–,–,–,0.681,0.518,–,0.483,0.69,1.01,0.638,0.665,0.427,0.439,0.511,0.354,0.391,0.231,0.226
NCI-H650,0.895,0.903,0.992,0.812,0.87,0.783,0.674,0.717,0.622,0.66,0.549,0.735,0.636,0.723,0.566,–,–,–,–,–
NCI-H661,0.968,0.902,0.877,0.786,0.806,0.353,0.354,0.379,0.352,0.352,1.01,–,0.977,–,0.987,–,–,–,–,–
NCI-H1793,0.864,0.831,0.616,0.419,0.431,0.324,0.395,–,0.326,0.582,–,–,–,–,–,0.337,0.408,0.39,0.349,0.263
